Marks after values point to notes of the source that are not given here.
Test system: locally advanced (Stage II/III) colon cancer
Test: Retrospective study of time to tumor recurrence (TTR) after 5-FU-based adjuvant chemotherapy, by regimen and by TS/MTHFR genotype
Assay type: in vivo, human
Description: One hundred and ninety-seven (n=197) with locally advanced colon cancer who were treated with 5-FU-based adjuvant chemotherapy [bolus 5-FU: n=30, (15%); infusimal 5-FU: […], (85%)] either at the University of Southern California/Norris Comprehensive Cancer Center (USC/NCCC) or at the Los Angeles County/University of Southern California Medical Center (LAC/USCMC), between 1987 and 2007, were eligible for the present study. This study was conducted at the USC/NCCC and approved by the Institutional Review Board of the University of Southern California for Medical Sciences. Patient data were collected retrospectively through chart review. Informed consent was signed by all patients involved in the study.
Whole blood was collected and genomic DNA was extracted using the QIAamp kit (Qiagen, CA, USA). Samples were tested using polymerase chain reaction restriction fragment length polymorphism (PCR-RFLP) technique. Briefly, forward and reverse primers were used for PCR amplification (see Table 7), PCR products were digested by restriction enzymes (New England Biolab, Massachusetts, USA) and alleles were separated using a 4% NuSieve ethidium bromide stained agarose gel. TS and MTHFR polymorphisms were tested by PCR, followed by allele-specific restriction enzyme digestion method, as previously described (Mandola, M. V. et al. (2003) Cancer Res 63:2898-904; Mandola, M. V. et al. (2004) Pharmacogenetics 14:319-27; Markan, S. et al. (2007) Mol Cell Biochem 302:125-31; Stern, L. L. et al. (2000) Cancer Epidemiol Biomarkers Prev 9:849-53).
The primary endpoint in this study was time to tumor recurrence (TTR) in Stage II/III colon cancer patients, which was defined as the time from the date of diagnosis of Stage II/III colon cancer to the date of first recurrence, […], or until last contact if the patient was free of any tumor recurrence at the time of last contact. If a patient had not recurred, then TTR was censored at the time of death or at the last follow-up. The associations of time to tumor recurrence with patient's clinico-pathologic characteristics (age, sex, race, Stage, tumor grade, T-stage, N-stage and type of adjuvant chemotherapy) were assessed using univariate survival analyses (log-rank test).
Polymorphisms of TS and MTHFR were coded as categorical variables according to their genotypes. The associations between TS and MTHFR polymorphisms and time to recurrence were examined using Kaplan-Meier curves and log-rank test. The distributions of polymorphisms across demographic characteristics were examined using Fisher's exact test. In the univariate survival analysis, the Pike estimate of relative risk (RR) and its associated 95% confidence interval (95% CI) was based on the log-rank test.

[1] = patients receiving 5-FU only, MTHFR A + 1298C A/A
[2] = patients receiving 5-FU only, MTHFR A + 1298C A/C
[3] = patients receiving 5-FU only, MTHFR A + 1298C C/C
[4] = patients receiving 5-FU only, MTHFR C + 677T C/C
[5] = patients receiving 5-FU only, MTHFR C + 677T C/T
[6] = patients receiving 5-FU only, MTHFR C + 677T T/T
[7] = patients receiving 5-FU only, TS-3′UTR +6b/−6bp
[8] = patients receiving 5-FU only, TS-3′UTR +6bp/+6bP
[9] = patients receiving 5-FU only, TS-3′UTR −6bp/−6bp
[10] = patients receiving 5-FU only, TS-5′UTR 2R/2R
[11] = patients receiving 5-FU only, TS-5′UTR 2R/3R
[12] = patients receiving 5-FU only, TS-5′UTR 3R/36
[13] = patients receiving 5-FU only, TS-5′UTR/GC 2R/2R
[14] = patients receiving 5-FU only, TS-5′UTR/GC 2R/3(G)
[15] = patients receiving 5-FU only, TS-5′UTR/GC 2R/3R(C)
[16] = patients receiving 5-FU only, TS-5′UTR/GC 3R(C)/3R(C)
[17] = patients receiving 5-FU only, TS-5′UTR/GC 3R(G)/3R(C)
[18] = patients receiving 5-FU only, TS-5′UTR/GC 3R(G)/3R(G)

O=c1[nH]cc(F)c(=O)[nH]1 [5-FU, 5-Fluorouracil] was tested. Which “Median time to recurrence (TTR) years (95% CI)” value (shortened to “Median time … (95% CI)”) (all patients grouped by adjuvant therapy) did it give?
Its value is 6.6 years.

And the “Probablility ± SE of 3-year recurrence” value (all patients grouped by adjuvant therapy, Greenwood SE)?
Its value is 0.35 ± 0.04.

And the “Median time … (95% CI)” value [1]?
The value was > 16.8^b years.

And the “Probability ± SE of 3-year recurrence” value [1]?
The value was 0.31 ± 0.06.

What about the “Median time … (95% CI)” value [2] of the same compound?
Its value is 5.9 years.

And the “Probability ± SE of 3-year recurrence” value [2]?
Its value is 0.35 ± 0.08.

What about the Relative risk (patients receiving 5-FU only, MTHFR A + 1298C A/C vs A/A (Reference)) of the same compound?
Its Relative risk is 1.33.

And the “Median time … (95% CI)” value [3]?
Its value is 6.6 years.

And the “Probability ± SE of 3-year recurrence” value [3]?
Its value is 0.40 ± 0.22.

What about the Relative risk (patients receiving 5-FU only, MTHFR A + 1298C C/C vs A/A (Reference)) of the same compound?
The Relative risk was 1.50.

And the “Median time … (95% CI)” value [4]?
Its value is 6.6 years.

And the “Probability ± SE of 3-year recurrence” value [4]?
The value was 0.26 ± 0.07.

What about the “Median time … (95% CI)” value [5] of the same compound?
Its value is 5.4 years.

And the “Probability ± SE of 3-year recurrence” value [5]?
The value was 0.41 ± 0.07.

And the Relative risk (patients receiving 5-FU only, MTHFR C + 677T C/T vs C/C (Reference))?
Its Relative risk is 1.30.

What about the “Median time … (95% CI)” value [6] of the same compound?
The value was > 7.4^b years.

And the “Probability ± SE of 3-year recurrence” value [6]?
The value was 0.21 ± 0.09.

And the Relative risk (patients receiving 5-FU only, MTHFR C + 677T T/T vs C/C (Reference))?
Its Relative risk is 0.55.

What about the “Median time … (95% CI)” value [7] of the same compound?
The value was 5.7 years.

What about the “Probability ± SE of 3-year recurrence” value [7] of the same compound?
Its value is 0.34 ± 0.07.

And the Relative risk (patients receiving 5-FU only, TS-3′UTR +6b/−6bp vs +6bp/+6bP (Reference))?
Its Relative risk is 1.33.

What about the “Median time … (95% CI)” value [8] of the same compound?
Its value is > 16.8^b years.

And the “Probability ± SE of 3-year recurrence” value [8]?
The value was 0.28 ± 0.06.

And the “Median time … (95% CI)” value [9]?
Its value is > 7.7^b years.

And the “Probability ± SE of 3-year recurrence” value [9]?
Its value is 0.43 ± 0.12.

What about the Relative risk (patients receiving 5-FU only, TS-3′UTR −6bp/−6bp vs +6bp/+6bP (Reference)) of the same compound?
Its Relative risk is 1.36.

And the “Median time … (95% CI)” value [10]?
Its value is > 16.8^b years.

What about the “Probability ± SE of 3-year recurrence” value [10] of the same compound?
Its value is 0.20 ± 0.08.

What about the “Median time … (95% CI)” value [11] of the same compound?
Its value is 4.8 years.

What about the “Probability ± SE of 3-year recurrence” value [11] of the same compound?
Its value is 0.42 ± 0.07.

What about the Relative risk (patients receiving 5-FU only, TS-5′UTR 2R/3R vs 2R/2R (Reference)) of the same compound?
The Relative risk was 1.94.

What about the “Median time … (95% CI)” value [12] of the same compound?
Its value is 6.6 years.

And the “Probability ± SE of 3-year recurrence” value [12]?
Its value is 0.29 ± 0.08.

What about the Relative risk (patients receiving 5-FU only, TS-5′UTR 3R/36 vs 2R/2R (Reference)) of the same compound?
Its Relative risk is 1.43.

And the “Median time … (95% CI)” value [13]?
The value was > 16.8^b years.

What about the “Probability ± SE of 3-year recurrence” value [13] of the same compound?
The value was 0.20 ± 0.08.

What about the “Median time … (95% CI)” value [14] of the same compound?
The value was 4.8 years.

And the “Probability ± SE of 3-year recurrence” value [14]?
Its value is 0.44 ± 0.10.

What about the Relative risk (patients receiving 5-FU only, TS-5′UTR/GC 2R/3(G) vs 2R/2R (Reference)) of the same compound?
The Relative risk was 1.81.

What about the “Median time … (95% CI)” value [15] of the same compound?
Its value is 5.9 years.

What about the “Probability ± SE of 3-year recurrence” value [15] of the same compound?
Its value is 0.38 ± 0.10.

And the Relative risk (patients receiving 5-FU only, TS-5′UTR/GC 2R/3R(C) vs 2R/2R (Reference))?
Its Relative risk is 1.79.

What about the “Median time … (95% CI)” value [16] of the same compound?
Its value is > 13.3^b years.

And the “Probability ± SE of 3-year recurrence” value [16]?
The value was 0.17 ± 0.11.

And the Relative risk (patients receiving 5-FU only, TS-5′UTR/GC 3R(C)/3R(C) vs 2R/2R (Reference))?
Its Relative risk is 0.46.

What about the “Median time … (95% CI)” value [17] of the same compound?
Its value is 5.7 years.

And the “Probability ± SE of 3-year recurrence” value [17]?
The value was 0.24 ± 0.12.

What about the Relative risk (patients receiving 5-FU only, TS-5′UTR/GC 3R(G)/3R(C) vs 2R/2R (Reference)) of the same compound?
The Relative risk was 1.44.

What about the “Median time … (95% CI)” value [18] of the same compound?
The value was 1.4 years.

And the “Probability ± SE of 3-year recurrence” value [18]?
The value was 0.61 ± 0.17.

What about the Relative risk (patients receiving 5-FU only, TS-5′UTR/GC 3R(G)/3R(G) vs 2R/2R (Reference)) of the same compound?
The Relative risk was 4.74.
